# In paper PMC5927461, “Activation of host transient receptor potential (TRP) channels by praziquantel stereoisomers” (PLoS Neglected Tropical Diseases, 2018):
# Assays:
# [1] = target: T1, hTRPA1 (Homo sapiens, UniProt O75762); experiment: TRP channel panel primary screen (FLIPR Calcium 5, stable HEK line); format: cell-based; conditions: 0.3-300μM; effects over the micromolar range
# Method: (§1) ±PZQ, (R)-PZQ and (S)-PZQ were screened against a panel of 17 human TRP channels (SB Drug Discovery, Glasgow). For all hTRPs, except for TRPM5, individual channel constructs were stably expressed in HEK cell lines. TRMP5 was expressed in a stable CHO cell line. In preparation for the assays, cells were trypsinized, counted and seeded (50,000 cells/well) in black, clear-bottomed 96 well plates and incubated overnight. The following day, cells were loaded with a fluorescent indicator (FLIPR Calcium 5 Assay kit for TRPA1, TRPV1, TRPV2, TRPV3, TRPV4, TRPV5, TRPC1, TRPM2, TRPM3 and TRPM8, or a membrane potential dye (FLIPR Membrane Potential Red Assay Kit for TRPC3, TRPC4, TRPC5, TRPC6, TRPC7, TRPM4 and TRPM5) prepared according to the manufacturer’s instructions in HEPES buffered Hank’s balanced salt solution (HBSS). Dye solution (10μl) was added to appropriate wells and incubated at 37°C for 1 hour. All assays were performed at room temperature. Compounds were tested at 0.3, 1, 3, 10, 30, 100μM and 300μM in triplicate in both agonist and antagonist mode to determine EC50 and IC50 values, which were compared with reference compounds. Compounds were screened at a final DMSO concentration of 0.5%. Plates were screened using a Flexstation (Molecular Devices, FX01138), monitoring fluorescence values every ~1.52 seconds. For ‘agonist mode’ testing, 10μl of the appropriate test compound, or standard agonist, was added after 20 seconds and fluorescence monitored for 2 minutes at λex = 485nm, λem = 525nm for Ca^2+ imaging and λex = 530nm, λem = 565nm for membrane potential measurements. For ‘antagonist mode’ testing, test compounds and standard inhibitors were added to appropriate wells and incubated for 10 minutes at room temperature prior to addition of standard agonist compound.
# [2] = target: T2, hTRPC3 (Homo sapiens, UniProt Q13507); experiment: TRP channel panel primary screen (membrane potential dye, stable HEK line); format: cell-based; conditions: 0.3-300μM; effects over the micromolar range
# T2 sequence (Q13507 1-921): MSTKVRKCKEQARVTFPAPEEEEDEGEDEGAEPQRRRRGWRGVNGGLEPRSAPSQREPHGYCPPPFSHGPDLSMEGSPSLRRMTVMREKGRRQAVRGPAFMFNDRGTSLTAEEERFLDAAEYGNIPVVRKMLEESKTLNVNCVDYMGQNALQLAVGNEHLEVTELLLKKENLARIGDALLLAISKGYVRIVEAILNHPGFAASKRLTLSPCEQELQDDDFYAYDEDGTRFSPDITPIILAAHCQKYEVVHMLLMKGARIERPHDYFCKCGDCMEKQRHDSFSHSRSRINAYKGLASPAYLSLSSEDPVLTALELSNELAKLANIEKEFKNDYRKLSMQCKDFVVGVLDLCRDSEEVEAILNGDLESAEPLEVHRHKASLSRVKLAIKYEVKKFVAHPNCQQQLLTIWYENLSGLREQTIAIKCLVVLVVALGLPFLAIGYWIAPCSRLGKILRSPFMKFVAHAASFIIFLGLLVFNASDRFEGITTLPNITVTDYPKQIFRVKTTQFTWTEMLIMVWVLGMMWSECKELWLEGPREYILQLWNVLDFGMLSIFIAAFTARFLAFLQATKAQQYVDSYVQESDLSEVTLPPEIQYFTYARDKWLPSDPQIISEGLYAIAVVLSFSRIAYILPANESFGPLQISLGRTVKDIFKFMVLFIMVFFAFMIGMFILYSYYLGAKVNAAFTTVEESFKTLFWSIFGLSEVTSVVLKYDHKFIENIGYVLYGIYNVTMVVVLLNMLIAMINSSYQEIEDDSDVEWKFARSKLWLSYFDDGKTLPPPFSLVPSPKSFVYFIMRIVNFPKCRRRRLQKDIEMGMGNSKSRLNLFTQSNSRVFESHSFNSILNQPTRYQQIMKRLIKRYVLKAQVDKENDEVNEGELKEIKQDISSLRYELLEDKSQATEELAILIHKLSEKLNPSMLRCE
# Method: as §1
# [3] = target: T3, hTRPC7 (Homo sapiens, UniProt Q9HCX4); experiment: as above; format: cell-based; conditions: 0.3-300μM; effects over the micromolar range
# T3 sequence (Q9HCX4 1-862): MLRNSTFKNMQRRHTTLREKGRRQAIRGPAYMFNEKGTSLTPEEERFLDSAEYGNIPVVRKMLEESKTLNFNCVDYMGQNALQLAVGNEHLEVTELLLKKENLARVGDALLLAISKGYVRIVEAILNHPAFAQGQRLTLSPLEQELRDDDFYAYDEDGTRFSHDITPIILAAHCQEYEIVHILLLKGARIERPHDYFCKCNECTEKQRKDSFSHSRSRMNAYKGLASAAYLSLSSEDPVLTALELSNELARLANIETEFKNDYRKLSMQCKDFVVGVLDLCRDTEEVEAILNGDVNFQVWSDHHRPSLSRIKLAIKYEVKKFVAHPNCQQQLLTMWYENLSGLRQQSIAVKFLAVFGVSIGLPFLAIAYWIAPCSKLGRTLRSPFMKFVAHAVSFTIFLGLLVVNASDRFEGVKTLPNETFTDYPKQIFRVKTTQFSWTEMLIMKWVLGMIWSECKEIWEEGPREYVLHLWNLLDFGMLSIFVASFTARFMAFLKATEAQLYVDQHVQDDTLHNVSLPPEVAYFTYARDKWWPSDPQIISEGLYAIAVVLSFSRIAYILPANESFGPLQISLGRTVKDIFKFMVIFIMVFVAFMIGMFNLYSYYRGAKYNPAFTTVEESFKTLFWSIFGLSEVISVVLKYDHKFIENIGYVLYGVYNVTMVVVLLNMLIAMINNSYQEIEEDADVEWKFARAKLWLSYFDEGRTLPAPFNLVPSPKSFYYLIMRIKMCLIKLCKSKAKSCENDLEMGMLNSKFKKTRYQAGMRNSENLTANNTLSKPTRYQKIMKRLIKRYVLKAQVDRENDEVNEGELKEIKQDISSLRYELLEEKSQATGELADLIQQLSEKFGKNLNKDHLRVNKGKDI
# Method: as §1
# [4] = tested on: mouse mesenteric arteries; experiment: Wire myography, mesenteric artery strips precontracted with high K+ (KPSS); conditions: for relaxation of KPSS-contracted vessel strips by TRPM8 agonists: wild type, menthol 300μM, icilin 50 μM, WS-12 50μM
# [5] = target: T1, hTRPA1; experiment: Single cell confocal Ca2+ imaging (fluo-4) in transfected HEK293 cells; format: cell-based; design: host or cells: HEK293 (ATCC CRL-1573.3), transient; conditions: for Ca2+ response in hTRPA1 expressing cells: 100μM
# From the text: (§2) Human TRPM8 cDNA was a VersaClone from R&D Systems (RDC0188). Plasmids encoding human TRPA1 and human TRPV1 cDNA were purchased from DNASU plasmid repository (HsCD00080227 and HsCD00081472, respectively). The TRP channel coding sequences were subcloned into pCS2+ to introduce a COOH-term myc tag using the InFusion HD method (Clontech), HindIII/XhoI restriction enzymes (NEB) and the following primers: TRPM8 F–TGGGGACGTCGGAGC-aagctt-[…]; TRPM8 R–AAATCGATGGGATGC-ctcgag-[…]; TRPA1 F-GGACGTCGGAGC-aagctt- atgaagcgcagcctgagg; TRPA1 R-TCGATGGGATGC-ctcgag-[…]; TRPV1 F–GGACGTCGGAGC-aagctt-[…]; TRPV1 R-TCGATGGGATGC-ctcgag-cttctccccggaagcgg (where upper case specifies vector-specific sequences, italics indicate restriction sites, and lower case indicates TRP channel specific sequences). Primers are listed in a 5’ to 3’ orientation.
# (§3) HEK293 cells (ATCC CRL-1573.3) were cultured in DMEM supplemented with 10% fetal bovine serum (FBS), penicillin (100 units/ml), streptomycin (100 μg/ml), and L-glutamine (290 μg/ml). Cells were transiently transfected (Lipofectamine LTX, Thermo Fisher) at a density of 2x10^6 cells per T-25 cell-culture flask with TRP channel cDNA. For Ca^2+ imaging assays, HEK293 cells were seeded onto 8-chambered coverglass slides (Thermo Fisher, 115411PK), at a density of 1x10^4 cells one day prior to imaging. Cells were washed twice with HBSS, and incubated with fluo-4-AM (4μM), pluronic F127 (0.4%) and probenecid (2.5mM) for 25 minutes at room temperature. Cells were then washed twice with HBSS, and left at room temperature (30 minutes) for de-esterification. Dishes were mounted on an Olympus IX81 microscope and fluorescence changes (λex = 488nM, λem = 513±15nm bandpass filter) monitored using a Yogokawa spinning disk confocal (CSU-X-M1N) and an Andor iXon Ultra 888 EMCCD camera.
# [6] = target: hTRPM8 (Homo sapiens, UniProt Q7Z2W7); experiment: as above; format: cell-based; design: host or cells: HEK293 (ATCC CRL-1573.3), transient; conditions: for cytoplasmic Ca2+ signal in TRPM8 expressing cells: menthol 300μM, ±PZQ 100μM, (R)-PZQ or (S)-PZQ 50μM
# Sequence of hTRPM8 (Q7Z2W7 whole entry): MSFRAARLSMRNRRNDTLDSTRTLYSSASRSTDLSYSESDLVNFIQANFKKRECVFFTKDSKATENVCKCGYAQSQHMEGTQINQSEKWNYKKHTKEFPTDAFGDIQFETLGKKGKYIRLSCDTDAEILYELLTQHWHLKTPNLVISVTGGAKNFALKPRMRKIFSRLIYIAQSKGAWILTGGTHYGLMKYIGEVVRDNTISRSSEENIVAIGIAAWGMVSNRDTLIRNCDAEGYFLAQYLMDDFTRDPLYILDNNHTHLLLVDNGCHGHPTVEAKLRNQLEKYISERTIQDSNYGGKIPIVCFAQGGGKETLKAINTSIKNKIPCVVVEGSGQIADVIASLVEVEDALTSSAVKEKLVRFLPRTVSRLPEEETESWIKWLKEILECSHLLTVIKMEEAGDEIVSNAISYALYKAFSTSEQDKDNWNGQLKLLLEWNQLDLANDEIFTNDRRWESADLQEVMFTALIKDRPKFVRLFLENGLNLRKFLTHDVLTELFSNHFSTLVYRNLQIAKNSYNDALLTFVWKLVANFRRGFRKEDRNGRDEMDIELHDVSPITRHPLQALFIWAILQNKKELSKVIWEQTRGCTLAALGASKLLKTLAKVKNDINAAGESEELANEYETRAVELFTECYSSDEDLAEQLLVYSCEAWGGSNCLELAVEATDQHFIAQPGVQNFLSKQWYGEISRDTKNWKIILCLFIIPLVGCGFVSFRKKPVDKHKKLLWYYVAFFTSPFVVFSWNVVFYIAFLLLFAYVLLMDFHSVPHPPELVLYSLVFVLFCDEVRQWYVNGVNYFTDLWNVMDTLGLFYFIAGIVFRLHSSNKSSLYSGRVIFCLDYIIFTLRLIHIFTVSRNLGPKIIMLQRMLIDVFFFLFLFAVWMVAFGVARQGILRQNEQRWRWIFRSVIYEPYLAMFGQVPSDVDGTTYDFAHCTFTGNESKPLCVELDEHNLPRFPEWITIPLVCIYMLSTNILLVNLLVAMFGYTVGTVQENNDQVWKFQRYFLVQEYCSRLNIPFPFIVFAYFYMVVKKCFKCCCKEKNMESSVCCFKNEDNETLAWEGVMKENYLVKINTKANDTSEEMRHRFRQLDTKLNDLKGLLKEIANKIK
# From the text: as §2, §3
# [7] = tested on: untransfected HEK293 cells; experiment: Confocal Ca2+ imaging in untransfected HEK293 cells (control); format: cell-based, human; conditions: menthol 300μM, ±PZQ 100μM, ACh 100μM, capsaicin 1μM, AITC 100μM
# Method: as §3
# [8] = tested on: mesenteric vessels isolated from a TRPM8 knockout mouse; experiment: Wire myography, KPSS-contracted mesenteric vessels from TRPM8 knockout mice; conditions: TRPM8 KO; menthol 300μM, icilin 50μM, WS-12 50μM
# [9] = target: TRPV1 (Homo sapiens, UniProt Q8NER1); experiment: Single cell confocal Ca2+ imaging (fluo-4) in transfected HEK293 cells; format: cell-based; design: host or cells: HEK293 (ATCC CRL-1573.3), transient
# Sequence of TRPV1 (Q8NER1 whole entry): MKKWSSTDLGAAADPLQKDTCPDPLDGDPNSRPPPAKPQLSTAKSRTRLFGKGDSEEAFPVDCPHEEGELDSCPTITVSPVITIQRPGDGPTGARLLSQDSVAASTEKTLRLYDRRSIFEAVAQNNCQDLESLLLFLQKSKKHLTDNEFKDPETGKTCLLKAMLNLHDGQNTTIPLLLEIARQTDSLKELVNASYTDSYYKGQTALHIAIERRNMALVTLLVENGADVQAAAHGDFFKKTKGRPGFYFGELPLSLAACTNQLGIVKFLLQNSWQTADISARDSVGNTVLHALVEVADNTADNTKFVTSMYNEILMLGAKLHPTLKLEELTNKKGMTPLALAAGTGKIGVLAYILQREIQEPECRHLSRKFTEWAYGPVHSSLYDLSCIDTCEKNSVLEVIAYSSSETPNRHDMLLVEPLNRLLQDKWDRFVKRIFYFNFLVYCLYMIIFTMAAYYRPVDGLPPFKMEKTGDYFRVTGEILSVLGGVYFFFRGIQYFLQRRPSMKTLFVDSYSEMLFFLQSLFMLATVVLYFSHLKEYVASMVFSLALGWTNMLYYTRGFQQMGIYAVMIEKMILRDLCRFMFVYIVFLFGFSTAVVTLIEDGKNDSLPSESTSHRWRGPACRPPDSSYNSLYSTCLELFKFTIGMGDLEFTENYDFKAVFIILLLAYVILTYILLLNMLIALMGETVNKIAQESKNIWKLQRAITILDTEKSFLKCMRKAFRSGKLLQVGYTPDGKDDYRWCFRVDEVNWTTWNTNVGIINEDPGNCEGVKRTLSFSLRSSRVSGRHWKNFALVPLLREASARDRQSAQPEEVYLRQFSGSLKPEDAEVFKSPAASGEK
# From the text: as §2, §3
# T1 sequence (O75762 whole entry): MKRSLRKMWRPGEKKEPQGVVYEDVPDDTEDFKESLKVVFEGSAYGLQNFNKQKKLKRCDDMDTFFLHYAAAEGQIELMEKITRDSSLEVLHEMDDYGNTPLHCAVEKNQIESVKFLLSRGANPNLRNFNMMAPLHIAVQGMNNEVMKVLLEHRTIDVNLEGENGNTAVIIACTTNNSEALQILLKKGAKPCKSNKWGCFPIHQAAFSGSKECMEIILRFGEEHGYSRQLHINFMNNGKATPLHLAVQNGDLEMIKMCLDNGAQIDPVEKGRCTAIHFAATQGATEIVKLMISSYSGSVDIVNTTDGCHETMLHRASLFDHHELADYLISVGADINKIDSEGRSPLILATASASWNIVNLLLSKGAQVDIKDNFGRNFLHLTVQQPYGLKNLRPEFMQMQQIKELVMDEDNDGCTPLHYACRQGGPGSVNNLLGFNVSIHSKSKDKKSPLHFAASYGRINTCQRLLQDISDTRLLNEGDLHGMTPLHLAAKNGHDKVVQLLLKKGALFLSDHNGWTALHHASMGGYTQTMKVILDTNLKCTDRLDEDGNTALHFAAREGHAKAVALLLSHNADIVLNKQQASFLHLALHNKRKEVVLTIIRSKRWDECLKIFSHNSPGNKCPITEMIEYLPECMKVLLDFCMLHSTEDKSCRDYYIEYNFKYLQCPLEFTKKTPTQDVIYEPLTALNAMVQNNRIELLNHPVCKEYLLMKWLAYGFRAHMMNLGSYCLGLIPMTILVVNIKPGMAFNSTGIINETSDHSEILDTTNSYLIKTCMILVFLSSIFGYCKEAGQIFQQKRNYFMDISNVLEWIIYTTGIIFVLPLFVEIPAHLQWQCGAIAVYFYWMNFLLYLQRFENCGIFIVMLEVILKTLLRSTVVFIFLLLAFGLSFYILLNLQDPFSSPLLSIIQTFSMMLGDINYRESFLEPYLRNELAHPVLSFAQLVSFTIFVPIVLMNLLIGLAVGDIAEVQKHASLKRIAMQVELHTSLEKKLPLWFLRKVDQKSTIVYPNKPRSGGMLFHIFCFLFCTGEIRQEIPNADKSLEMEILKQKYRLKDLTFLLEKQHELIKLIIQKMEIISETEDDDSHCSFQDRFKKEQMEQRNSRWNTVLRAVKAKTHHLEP
smiles,measurement,setting,value
O=C(C1CCCCC1)N1CC(=O)N2CCc3ccccc3[C@@H]2C1 [(R)-PZQ],activity at hTRPA1 in primary screen,[1],activated
same,activity at hTRPC3 in primary screen,[2],activated
same,activity at hTRPC7 in primary screen,[3],activated
same,change in tension of KPSS-precontracted vessels,"[4]; 50μM, bath application during KPSS-evoked contraction","initial, small contraction"
same,Ca2+ response in hTRPA1 expressing cells,[5],activation of hTRPA1
same,cytoplasmic Ca2+ signal in TRPM8 expressing cells,[6],without effect
"CC(=O)OCC[N+](C)(C)C [ACh, acetylcholine]",Ca2+ response in untransfected HEK293 cells,[7],caused Ca^2+ transients
"C=CCN=C=S [AITC, allyl isothiocyanate]",Ca2+ response in untransfected HEK293 cells,[7],without effect
same,Ca2+ response in hTRPA1 expressing cells,[5],elevation of cytoplasmic Ca^2+
Cn1cnc2ncn(Cc3nc(CCc4ccc(Cl)cc4)no3)c(=O)c21 [AM-0902],block of AITC-evoked Ca2+ elevation,"[5]; preincubation, 1μM",blocked
same,block of ±PZQ-evoked Ca2+ responses,"[5]; preincubation, 1μM",blocked
Cc1cccc(COc2ccccc2C(=O)N(CCCN)Cc2cccs2)c1 [AMTB],block of Ca2+ transients evoked by (S)-PZQ or menthol,[6]; AMTB 10μM added 30min before agonists,blocked
COc1ccc(NC(=O)[C@@H]2C[C@H](C)CC[C@H]2C(C)C)cc1 [WS-12],vasorelaxant effect in TRPM8 KO background,[8],persisted
same,relaxation of KPSS-contracted vessel strips by TRPM8 agonists,[4],completely relaxed
COc1cc(CNC(=O)CCCC/C=C/C(C)C)ccc1O [capsaicin],Ca2+ response in untransfected HEK293 cells,[7],neither the addition of the TRPV1 agonist capsaicin (1μM) nor addition of ±PZQ evoked a Ca^2+ response
same,Ca2+ signal in TRPV1 expressing cells,"[9]; capsaicin 1μM, ±PZQ 100μM",evoked Ca^2+ signals
Oc1cc2c(cc1O)CN(C(=S)NCCc1ccc(Cl)cc1)CCC2 [capsazepine],block of capsaicin-evoked Ca2+ signals,[9]; capsazepine 10μM,blocked
O=C1NC(c2cccc([N+](=O)[O-])c2)=CCN1c1ccccc1O [icilin],vasorelaxant effect in TRPM8 KO background,[8],persisted
same,relaxation of KPSS-contracted vessel strips by TRPM8 agonists,[4],completely relaxed
CC1CCC(C(C)C)C(O)C1 (stereo not drawn) [menthol],Ca2+ response in untransfected HEK293 cells,[7],neither ±PZQ or menthol elevated cytoplasmic Ca^2+ levels
same,vasorelaxant effect in TRPM8 KO background,[8],persisted
same,relaxation of KPSS-contracted vessel strips by TRPM8 agonists,[4],completely relaxed
same,menthol-evoked Ca2+ signals in Ca2+-free media,"[6]; 300μM, Ca2+-free media",not observed
same,cytoplasmic Ca2+ signal in TRPM8 expressing cells,[6],rapidly elevated cytoplasmic Ca^2+
